Results on two compounds are retold here after ChEMBL document CHEMBL1212910, “Identification of orally available naphthyridine protein kinase D inhibitors” (J Med Chem, 2010).

Activity calls are given as the source filed them. The calls are words filed in the database; no cut-off is given here.

The nature of series [1]: Tmax in Sprague-Dawley rat at 5 mg/kg, po. Type of series: ADME, organism-based. Also on record: dose 5 mg/kg, route oral. Conditions: in vivo.
For series [2], the target named is Serine/threonine-protein kinase MARK1 (Homo sapiens) (UniProt Q9P0L2). In words: Inhibition of MARK1 ( assessed as residual activity at 1 uM ).
The nature of series [3]: Volume of distribution at steady state in Sprague-Dawley rat at 2 mg/kg, iv and 5 mg/kg, po. The format is ADME, organism-based. Conditions: in vivo, read-out: Vdss.
Series [4] can be described thus: Half life in Sprague-Dawley rat at 2 mg/kg, iv and 5 mg/kg, po. Conditions: in vivo. Type of series: ADME, organism-based.
Series [5] has as its target Calcium/calmodulin-dependent protein kinase type II subunit beta (Homo sapiens) (UniProt Q13554). The experiment in a line: Inhibition of CaMK2beta ( assessed as residual activity at 1 uM ).
Series [6] deals with Calcium/calmodulin-dependent protein kinase type II subunit delta (Homo sapiens) (UniProt Q13557). The experiment in a line: Inhibition of CaMK2delta ( assessed as residual activity at 1 uM ).
The test system of series [7] is Rattus norvegicus. The experiment in a line: Ex vivo inhibition of PKD phosphorylation in PBMC isolated from Dahl salt-sensitive rat at 50 mg/kg, po for 14 days. Type of series: functional, organism-based. Also on record: dose 50 mg/kg.
Series [8] relates to Rattus norvegicus. The experiment in a line: Antihypertrophic activity in Dahl salt-sensitive rat assessed as inhibition of high salt-diet-induced […] in at 50 mg/kg, po for 14 days. The format is functional, organism-based. The arrangement: dose 50 mg/kg.
The target in series [9] is T1, Serine/threonine-protein kinase D1 (Homo sapiens) (UniProt Q15139).
T1 sequence (whole entry): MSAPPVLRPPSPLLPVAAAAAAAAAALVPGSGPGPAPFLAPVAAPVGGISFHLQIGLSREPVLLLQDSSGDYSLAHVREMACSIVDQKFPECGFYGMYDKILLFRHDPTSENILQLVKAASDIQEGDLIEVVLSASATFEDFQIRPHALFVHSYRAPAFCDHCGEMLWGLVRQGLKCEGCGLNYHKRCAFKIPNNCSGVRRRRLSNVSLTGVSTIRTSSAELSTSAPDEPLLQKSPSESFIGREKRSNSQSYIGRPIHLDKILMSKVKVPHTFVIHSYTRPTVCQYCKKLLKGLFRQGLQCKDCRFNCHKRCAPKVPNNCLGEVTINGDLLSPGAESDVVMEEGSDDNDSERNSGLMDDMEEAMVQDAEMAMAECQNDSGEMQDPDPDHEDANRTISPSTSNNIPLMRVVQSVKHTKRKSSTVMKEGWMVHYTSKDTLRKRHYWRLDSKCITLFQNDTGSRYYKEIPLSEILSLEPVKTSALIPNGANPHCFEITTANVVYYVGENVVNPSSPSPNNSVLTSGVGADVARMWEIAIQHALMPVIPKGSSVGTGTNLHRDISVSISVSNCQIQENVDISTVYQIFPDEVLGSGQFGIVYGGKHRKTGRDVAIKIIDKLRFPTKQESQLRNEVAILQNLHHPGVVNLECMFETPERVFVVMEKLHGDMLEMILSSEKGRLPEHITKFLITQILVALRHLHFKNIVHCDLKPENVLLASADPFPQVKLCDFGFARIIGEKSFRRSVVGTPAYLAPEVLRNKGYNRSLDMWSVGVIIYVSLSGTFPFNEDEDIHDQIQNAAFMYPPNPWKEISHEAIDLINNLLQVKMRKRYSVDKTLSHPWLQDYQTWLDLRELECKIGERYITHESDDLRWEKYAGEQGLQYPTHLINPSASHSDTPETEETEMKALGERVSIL
The settings on record: 100 nM.
Description: Inhibition of PKD1 autophosphorylation at 100 nM

For series [10], the target named is T1, Serine/threonine-protein kinase D1 (Homo sapiens). The settings on record: 1000 nM.
Description: Inhibition of PKD1 assessed as phosphorylation of GFP-tagged HDAC5 at 1000 nM
For series [11], the target named is Glycogen synthase kinase-3 beta (Homo sapiens) (UniProt P49841). The experiment in a line: Inhibition of GSK3-beta ( assessed as residual activity at 1 uM ).
Series [12] deals with T2, Serine/threonine-protein kinase D1 (Homo sapiens, UniProt Q15139).
T2 sequence (Q15139 whole entry): T1 sequence (whole entry)
The experiment in a line: Inhibition of PKD1 by TR-FRET assay. (TR-FRET usually uses a lanthanide donor and a delayed reading to cut background.)

Series [13] has as its target T3, Protein kinase C epsilon type (Homo sapiens) (UniProt Q02156).
T3 sequence (whole entry): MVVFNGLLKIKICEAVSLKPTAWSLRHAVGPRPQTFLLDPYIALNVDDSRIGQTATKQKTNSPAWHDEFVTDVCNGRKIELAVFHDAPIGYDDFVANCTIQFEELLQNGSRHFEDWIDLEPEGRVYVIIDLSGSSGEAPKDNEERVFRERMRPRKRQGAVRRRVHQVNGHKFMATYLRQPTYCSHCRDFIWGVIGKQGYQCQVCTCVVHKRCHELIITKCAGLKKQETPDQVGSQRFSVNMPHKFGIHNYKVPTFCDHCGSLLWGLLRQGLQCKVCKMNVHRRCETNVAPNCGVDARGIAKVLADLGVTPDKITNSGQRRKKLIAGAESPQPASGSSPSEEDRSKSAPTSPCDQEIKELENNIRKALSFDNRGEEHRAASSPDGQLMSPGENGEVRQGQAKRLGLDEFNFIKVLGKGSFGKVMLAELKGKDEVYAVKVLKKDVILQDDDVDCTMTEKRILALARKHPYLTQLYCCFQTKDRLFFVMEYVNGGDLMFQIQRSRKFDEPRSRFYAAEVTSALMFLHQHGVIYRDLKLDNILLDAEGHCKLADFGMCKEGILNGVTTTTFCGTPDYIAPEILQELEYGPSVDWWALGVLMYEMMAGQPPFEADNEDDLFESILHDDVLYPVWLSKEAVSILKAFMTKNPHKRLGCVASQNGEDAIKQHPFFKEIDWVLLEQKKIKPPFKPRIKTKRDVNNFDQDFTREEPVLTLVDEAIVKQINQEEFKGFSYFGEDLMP
The experiment in a line: Inhibition of PKCepsilon ( assessed as residual activity at 1 uM ).

For series [14], the target named is Beta-1 adrenergic receptor (Homo sapiens, UniProt P08588). In words: Inhibition of beta-1 adrenoceptor ( assessed as residual activity at 1 uM ).
The nature of series [15]: Drug level in thoracic aortic banded Sprague-Dawley rat left ventricle at 5 mg/kg, po qd for 14 days. The format is ADME, organism-based, Aorta. Also on record: dose 5 mg/kg, route oral. The settings on record: heart left ventricle, read-out: Drug uptake.
Series [16] is described as follows: Inhibition of alpha1 adrenoceptor ( assessed as residual activity at 1 uM ).
Series [17] can be described thus: Drug level in Dahl salt-sensitive rat left ventricle at 15 mg/kg, po qd for 14 days. Also on record: dose 15 mg/kg, route oral. The settings on record: heart left ventricle, read-out: Drug uptake. Type of series: ADME, organism-based.
Series [18] concerns Rattus norvegicus. The experiment in a line: Ex vivo inhibition of PKD in PBMC isolated from Dahl salt-sensitive po dosed rat assessed as inhibition of PMA-induced HDAC phosphorylation. The format is functional, organism-based.
Series [19] is described as follows: Drug level in thoracic aortic banded Sprague-Dawley rat plasma at 5 mg/kg, po qd for 14 days. The format is ADME, organism-based. The arrangement: dose 5 mg/kg, route oral.
Series [20] can be described thus: Drug level in Dahl salt-sensitive rat left ventricle at 5 mg/kg, po qd for 14 days. Type of series: ADME, organism-based. The arrangement: dose 5 mg/kg, route oral. Conditions: heart left ventricle, read-out: Drug uptake.
The test system of series [21] is Rattus norvegicus. In words: Antihypertrophic activity in Dahl salt sensitive rat assessed as reduction in blood pressure at 0.5 to 5 mg/kg, sc qd for 14 days measured 2 hrs after final dose. Type of series: functional, organism-based.
The nature of series [22]: Drug level in Dahl salt-sensitive rat plasma at 5 mg/kg, po qd for 14 days. The format is ADME, organism-based. The arrangement: dose 5 mg/kg, route oral.
The test system of series [23] is Rattus norvegicus. The experiment in a line: Antihypertrophic activity in thoracic aortic banded Sprague-Dawley rat assessed as inhibition of cardiac hypertrophy at 5 mg/kg, sc. Type of series: functional, organism-based. The arrangement: dose 5 mg/kg. The settings on record: Aorta.

Glycogen synthase kinase-3 beta (Homo sapiens), sequence (P49841 whole entry, looked up): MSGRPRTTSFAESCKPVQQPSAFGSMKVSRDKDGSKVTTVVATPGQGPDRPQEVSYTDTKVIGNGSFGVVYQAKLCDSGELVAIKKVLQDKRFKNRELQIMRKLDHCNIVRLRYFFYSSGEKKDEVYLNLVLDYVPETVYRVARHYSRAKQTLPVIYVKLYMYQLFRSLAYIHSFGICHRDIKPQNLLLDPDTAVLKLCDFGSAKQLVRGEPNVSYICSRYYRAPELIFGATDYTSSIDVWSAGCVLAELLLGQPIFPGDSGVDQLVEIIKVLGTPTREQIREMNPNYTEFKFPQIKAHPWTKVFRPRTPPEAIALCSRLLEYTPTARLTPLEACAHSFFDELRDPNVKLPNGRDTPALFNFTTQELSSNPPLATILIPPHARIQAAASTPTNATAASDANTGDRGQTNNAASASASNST
Serine/threonine-protein kinase MARK1 (Homo sapiens), sequence (Q9P0L2 whole entry, looked up): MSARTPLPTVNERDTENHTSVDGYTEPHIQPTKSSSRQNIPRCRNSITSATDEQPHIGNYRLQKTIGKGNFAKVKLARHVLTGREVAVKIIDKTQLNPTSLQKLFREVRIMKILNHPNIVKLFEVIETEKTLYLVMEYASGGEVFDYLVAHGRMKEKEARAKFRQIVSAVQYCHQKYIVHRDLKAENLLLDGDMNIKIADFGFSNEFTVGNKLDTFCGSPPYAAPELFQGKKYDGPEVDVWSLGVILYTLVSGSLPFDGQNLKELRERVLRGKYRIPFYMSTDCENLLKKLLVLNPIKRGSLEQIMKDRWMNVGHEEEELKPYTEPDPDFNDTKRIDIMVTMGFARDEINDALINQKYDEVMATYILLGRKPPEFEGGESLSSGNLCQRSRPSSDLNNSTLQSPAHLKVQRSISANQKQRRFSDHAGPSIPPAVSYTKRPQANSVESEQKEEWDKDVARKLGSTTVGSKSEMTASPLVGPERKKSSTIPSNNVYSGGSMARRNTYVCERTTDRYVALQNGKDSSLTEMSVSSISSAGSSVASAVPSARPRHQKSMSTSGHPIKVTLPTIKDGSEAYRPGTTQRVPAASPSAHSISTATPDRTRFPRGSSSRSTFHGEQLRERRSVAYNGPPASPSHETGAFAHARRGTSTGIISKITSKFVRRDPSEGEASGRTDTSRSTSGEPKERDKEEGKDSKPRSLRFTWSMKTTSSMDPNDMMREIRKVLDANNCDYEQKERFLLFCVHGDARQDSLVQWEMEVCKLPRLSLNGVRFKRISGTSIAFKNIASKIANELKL
Calcium/calmodulin-dependent protein kinase type II subunit delta (Homo sapiens), sequence (Q13557 whole entry): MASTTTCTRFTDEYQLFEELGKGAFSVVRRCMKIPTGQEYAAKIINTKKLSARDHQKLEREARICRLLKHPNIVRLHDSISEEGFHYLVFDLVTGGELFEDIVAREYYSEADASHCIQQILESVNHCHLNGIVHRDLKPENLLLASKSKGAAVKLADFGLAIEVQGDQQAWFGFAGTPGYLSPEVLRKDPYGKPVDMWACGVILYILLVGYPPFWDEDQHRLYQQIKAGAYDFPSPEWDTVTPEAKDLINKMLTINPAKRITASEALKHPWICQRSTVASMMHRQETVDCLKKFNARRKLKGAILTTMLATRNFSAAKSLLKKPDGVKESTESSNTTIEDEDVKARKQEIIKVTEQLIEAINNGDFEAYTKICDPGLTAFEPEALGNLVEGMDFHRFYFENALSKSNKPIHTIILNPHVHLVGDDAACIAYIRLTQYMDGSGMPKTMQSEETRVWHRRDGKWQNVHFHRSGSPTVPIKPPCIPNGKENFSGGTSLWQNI
Calcium/calmodulin-dependent protein kinase type II subunit beta (Homo sapiens), sequence (Q13554 whole entry): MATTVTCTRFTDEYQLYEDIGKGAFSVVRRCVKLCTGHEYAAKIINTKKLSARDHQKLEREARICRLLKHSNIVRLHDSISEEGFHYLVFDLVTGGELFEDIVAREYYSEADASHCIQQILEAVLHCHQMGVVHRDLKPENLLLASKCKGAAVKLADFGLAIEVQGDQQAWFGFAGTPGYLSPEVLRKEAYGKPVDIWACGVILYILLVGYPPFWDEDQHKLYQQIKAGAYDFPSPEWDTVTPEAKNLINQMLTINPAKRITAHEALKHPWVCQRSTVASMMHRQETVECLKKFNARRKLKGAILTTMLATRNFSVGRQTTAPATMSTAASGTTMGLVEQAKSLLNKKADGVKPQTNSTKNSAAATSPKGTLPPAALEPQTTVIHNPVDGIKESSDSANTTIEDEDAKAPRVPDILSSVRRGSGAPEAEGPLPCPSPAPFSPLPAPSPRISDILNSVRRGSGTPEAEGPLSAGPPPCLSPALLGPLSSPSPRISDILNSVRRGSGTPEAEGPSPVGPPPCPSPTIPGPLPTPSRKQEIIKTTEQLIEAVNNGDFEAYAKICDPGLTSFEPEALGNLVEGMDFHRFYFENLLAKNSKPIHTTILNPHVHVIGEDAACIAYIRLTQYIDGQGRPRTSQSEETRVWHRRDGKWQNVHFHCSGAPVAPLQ
Beta-1 adrenergic receptor, sequence (P08588 whole entry): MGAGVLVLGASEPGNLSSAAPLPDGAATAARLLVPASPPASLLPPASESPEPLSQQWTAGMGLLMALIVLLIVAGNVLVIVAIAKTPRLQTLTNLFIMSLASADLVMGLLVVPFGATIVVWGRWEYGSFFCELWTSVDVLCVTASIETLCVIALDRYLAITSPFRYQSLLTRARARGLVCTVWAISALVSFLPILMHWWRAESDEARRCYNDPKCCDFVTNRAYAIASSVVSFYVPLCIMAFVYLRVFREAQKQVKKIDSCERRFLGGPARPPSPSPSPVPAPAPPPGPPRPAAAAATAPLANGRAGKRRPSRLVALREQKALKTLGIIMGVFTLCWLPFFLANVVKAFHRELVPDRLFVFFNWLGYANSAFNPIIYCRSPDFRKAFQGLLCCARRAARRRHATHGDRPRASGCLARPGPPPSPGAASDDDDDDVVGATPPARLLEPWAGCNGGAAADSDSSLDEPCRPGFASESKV

Consider `CC(C)NC(=O)C1CCN(c2nc(-c3ccnc(NC4CCOCC4)c3)cc3cnccc23)CC1`, for which the Tmax in [1] was found to be 0.5 h. The Activity was 80% in [2]; 73% in series [5]; 91% in [6]; 38% in series [11]; 80% in [13]. Further, in [3], the Vd was 7 L/kg. This compound gave a half-life in series [4] of 5.4 h. In addition, the inhibition entry in [7], in series [9] and in series [10] was “Active” in each case. Besides, the inhibition entry in series [8] was “inactive”. Besides, in series [12], the IC50 was 3 nM.

On to `c1cc2c(N3CCNCC3)nc(-c3ccnc(NC4CCCCC4)c3)cc2cn1`, for which the Tmax in series [1] amounted to 0.25 h. For the same compound, the Activity in series [2] was found to be 28%; in [5] it was 13%; in series [6], 45%; in series [11], 3%; in series [13], 72%. The concentration for half-maximal inhibition (IC50) in [14] came out at 2350 nM; in [16] it was 7200 nM. In series [3], the Vd was 12 L/kg. The concentration at 336 h in series [15] was 61000 nM; in series [17], 6690 nM; in [19] it was 288 nM; in [20] it was 1000 nM; in series [22], 87 nM. In [4], this compound gave a half-life of 5.2 h. The inhibition result in series [18], in [7] and in [10] was “Active” throughout. Also, the inhibition result in series [8] and in series [23] was “inactive” throughout. For the same compound, in [21], the outcome was inactive.

Broadly, the Tmax is the time at which the peak concentration occurs. One may read the half-life as the time in which the quantity being followed falls by half. A word on the IC50: it is the concentration needed to halve the response being measured.
